This is an account of results in US20190070140A1, “COMPOSITION COMPRISING PROTECTIN DX AS ACTIVE INGREDIENT FOR PREVENTING OR TREATING HYPERLIPIDEMIA OR FATTY LIVER DISEASE” (Solvit P&F, priority 2017, published 2019).

In one assay the test system is IRE-1, eIF2α and CHOP. In words: Western-blot assay of phosphorylation and expression of ER stress markers in palmitate-treated HepG2 cells. It counts as cell-based, Human. The settings on record: for expression of ER stress markers IRE-1, eIF2α and CHOP: FIG. 2A. As for the experimental part: Human liver cells, that is, HepG2 cells (ATCC, Manassas, Va., USA) were cultured in high-glucose Dulbecco's modified eagle medium (DMEM, Invitrogen, Carlsbad, Calif., USA), which includes 10% fetal bovine serum (FBS, Invitrogen), 100 units/mL of penicillin and 100 μg/ml of streptomycin. The cells were incubated at 37° C. under a condition of 5% CO2. Mycoplasma was not detected in HepG2 cells. PDX (Cayman Chemical, Ann Arbor, Mich., USA) was dissolved in ethanol. Sodium palmitate (Sigma, St. Louis, Mo., USA) was mixed with 2% BSA (fatty acid free level; Sigma) in DMEM. […] In all experiments, the cells were treated with palmitate-BSA and PDX for 24 hours, while 2% BSA-ethanol was used as a control group. After collecting HepG2 cells, protein was extracted from the cells with a buffer (PRO-PREF; Intron Biotechnology, Seoul, Korea) at 4° C. for 1 hour. A protein sample (35 μg) was applied to 12% SDS-PAGE, transferred to a nitrocellulose film (Amersham Bioscience, Westborough, Mass., USA), detected with a primary antibody, followed by probing with a secondary antibody and another secondary antibody conjugated with horseradish […] (Santa Cruz Biotechnology). The sample was detected by ECL kit. Under 70% comfluency, 0 to 20 nmol/L […] (si)RNA oligonucleotide to ORP150 purchased from Santa Cruz Biotechnology was transfected to inhibit gene expression. Scramble siRNA was used as a control group. 2 or 4 μg of pCMV3-ORP150 (Sino Biological, Beijing, China) was transiently transfected, leading to over-expression of ORP150. pCMV3 empty-vector was used as a control group. According to instruction of the manufacturer, transfection was executed using lipofectamine 2000 (Invitrogen).

The subject of another assay is ORP150. In words: Western-blot assay of ORP150 in HepG2 cells. It counts as cell-based, Human. To be noted: 2 μm PDX, 24 hours, FIG. 3A. As for the experimental part: After collecting HepG2 cells, protein was extracted from the cells with a buffer (PRO-PREF; Intron Biotechnology, Seoul, Korea) at 4° C. for 1 hour. A protein sample (35 μg) was applied to 12% SDS-PAGE, transferred to a nitrocellulose film (Amersham Bioscience, Westborough, Mass., USA), detected with a primary antibody, followed by probing with a secondary antibody and another secondary antibody conjugated with horseradish […] (Santa Cruz Biotechnology). The sample was detected by ECL kit. Under 70% comfluency, 0 to 20 nmol/L […] (si)RNA oligonucleotide to ORP150 purchased from Santa Cruz Biotechnology was transfected to inhibit gene expression. Scramble siRNA was used as a control group. 2 or 4 μg of pCMV3-ORP150 (Sino Biological, Beijing, China) was transiently transfected, leading to over-expression of ORP150. pCMV3 empty-vector was used as a control group. According to instruction of the manufacturer, transfection was executed using lipofectamine 2000 (Invitrogen). The present inventors have executed western-blot assay of ORP150 in HepG2 cells transfected with scramble siRNA or siFOXO1 in the presence of 2 μm of PDX for 24 hours.

For the next assay, the system named is HFD diet mouse. The assay is described as follows: Hepatic steatosis in HFD diet mouse: H&E and Oil-Red-O staining, TG analysis kit. It counts as in vivo. The settings on record: HFD mice, PDX i.p. 1 μg/mice/day for 8 weeks. As for the experimental part:
(§1) The present study has received the approval of the Institutional Animal Review Committee (Institutional Animal Care and Use Committee in Korea University, Seoul, Korea). The animal experiment was conducted according to the Guide for Care and Use of Laboratory Animals (NH publication, 8th Ed., 2011). A control group and a group of male C57BL/6J(B6) mice at 8 weeks of age were subjected to a normal diet (ND, Brogaarden, Gentofte, Denmark) and a high fat diet (HFD, Research Diets, New Brunswick, N.J., USA) for 8 weeks, respectively. The HFD (high fat diet) group was provided with intra-peritoneal injection of PDX for 8 weeks (1 μg/mice/day). An ethanol injection group was used as a control group.
HepG2 cells and a cut section of the liver in a mouse were stained by Oil-Red-O staining method, in order to determine cellular triglyceride such as triglyceride, that is, TG. The liver cells were fixed with 10% formalin for 40 minutes, and then stained with Oil-Red-O solution (Sigma) at 37° C. for 1 hour. A content of Oil-Red-O stained TG was quantified by adding isopropanol to each of the samples. The mixture was gently stirred at 25° C. for 8 minutes. Lastly, 100 μl of isopropanol-extracted sample was analyzed by a spectrophotometer at 510 nm.
Total lipids were extracted using a mixture of 2:1 chloroform:methanol (2:1, v/v). An organic layer was dissolved in 60% methanol immediately after drying the same. The extracted TG was measured by a colormetric TG analysis kit according to instructions of the manufacturer (Biovision, Milpitas, Calif., USA).
The present inventors have assessed PDX effects upon lipid accumulation in a mouse. For this purpose, a liver cut section from a mouse was subjected to histological assay and western-blot assay through H&E staining and Oil-Red-O staining, while TG accumulation was measured using a TG analysis kit.

Assay [1] is described as follows: Body weight, liver weight and epididymal fat content of HFD mice. It counts as in vivo, mouse. The settings on record: PDX i.p. 1 μg/mice/day for 8 weeks, compared to HFD diet mice. As for the experimental part:
as §1, with “group. According to the above experimental procedures conducted for 8 weeks, the present inventors measured body weights, daily energy intakes, liver weights and epididymal fat contents, with respect to five mice per group.” for “group.”

Another assay deals with influenza virus. The settings on record: through RNA export system; reported; cited from earlier work.

As to `CC/C=C\C[C@H](O)/C=C/C=C\C=C\[C@@H](O)C/C=C\C/C=C\CCC(=O)O` [PDX, 10S,17S-dihydroxy-docosa-4Z,7Z,11E,13Z,15E,19Z-hexaeonic acid], the “expression of ER stress markers IRE-1, eIF2α and CHOP” value is listed as “increased again” with IRE-1, eIF2α and CHOP (palmitate + PDX + siORP150 (ORP150 silencing)); “reduced” in the assay on IRE-1, eIF2α and CHOP (scramble siRNA + palmitate + PDX). Further, in the assay on IRE-1, eIF2α and CHOP (palmitate-induced, 24 hours, FIG. 1C), the “phosphorylation and expression of ER stress markers IRE-1, eIF2α and CHOP” value is reported as “significantly decreased depending upon a dose of PDX”. Further, the “PDX effects of promoting ORP150 expression” value in the assay with ORP150 (HepG2 cells transfected with FOXO1 siRNA) is “inhibited”. In the assay with ORP150 (HepG2 cells, scramble siRNA), the ORP150 expression level result was “increased”. In addition, the “intracellular fat deposit rate (stained liver cut section)” value with HFD diet mouse (compared to HFD diet group, FIG. 5A left) is “decrease”. Besides, the “accumulation of triglyceride in the liver” value in the assay on HFD diet mouse (vs HFD, FIG. 5A) is recorded as “considerably reduced”. The “hepatic fibrosis (stained liver cut section)” value in the assay with HFD diet mouse (FIG. 5A left) is given as “very little hepatic fibrosis”. Moreover, in assay [1] (FIG. 6A), the body weights entry is reported as “significantly reduced”. The liver weights entry in assay [1] (FIG. 6C) is given as “significantly decreased”. Besides, the epididymal fat contents entry in assay [1] (FIG. 6D) is listed as “significantly decreased”. The “replication of influenza virus” value in the assay on influenza virus is given as “inhibits”.
